According to US8455665B2, “3-phenoxymethylpyrrolidine compounds” (Theravance, Inc., priority 2009, dated 2013):
Marks after values point to notes of the source that are not given here.

Legend:
[1] = molecular target: T1, SERT (Homo sapiens, UniProt P31645); experiment: hSERT membrane radioligand binding assay (3H-citalopram); set-up: expressed in transfected cells; host or cells: HEK-293; details: hSERT membranes (HEK-293), 1.0 nM 3H-citalopram; for Ki: read-out: SERT pKi (converted)
Experimental: (§1) Membrane radioligand binding assays were used to measure inhibition of labeled ligand (^3H-citalopram or ^3H-nisoxetine or ^3H-WIN35428) binding to membranes prepared from cells expressing the respective human recombinant transporter (hSERT or hNET or hDAT) in order to determine the pKi values of test compounds at the transporters.
(§2) Recombinant human embryonic kidney (HEK-293) derived cell lines stably transfected with hSERT or hNET, respectively, were grown in DMEM medium supplemented with 10% dialyzed FBS (for hSERT) or FBS (for hNET), 100 μg/ml penicillin, 100 μg/ml streptomycin, 2 mM L-glutamine and 250 μg/ml of the aminoglycoside antibiotic G418, in a 5% CO2 humidified incubator at 37° C. When cultures reached 80% confluence, the cells were washed thoroughly in PBS (without Ca^2+ and Mg^2+) and lifted with 5 mM EDTA in PBS. Cells were pelleted by centrifugation, resuspended in lysis buffer (10 mM Tris-HCl, pH7.5 containing 1 mM EDTA), homogenized, pelleted by centrifugation, then resuspended in 50 mM Tris-HCl, pH 7.5 and 10% sucrose at 4° C. Protein concentration of the membrane suspension was determined using a Bio-Rad Bradford Protein Assay kit. Membranes were snap frozen and stored at −80° C. Chinese hamster ovary membranes expressing hDAT (CHO-DAT) were purchased from PerkinElmer and stored at −80° C.
(§3) Binding assays were performed in a 96-well assay plate in a total volume of 200 μl assay buffer (50 mM Tris-HCl, 120 mM NaCl, 5 mM KCl, pH 7.4) with 0.5, 1, and 3 μg membrane protein, for SERT, NET and DAT, respectively.
(§4) Stock solutions (10 mM in DMSO) of test compound were prepared and serial dilutions made using Dilution Buffer (50 mM Tris-HCl, 120 mM NaCl, 5 mM KCl, pH 7.4, 0.1% BSA, 400 μM ascorbic acid). Non-specific radioligand binding was determined in the presence of 1 μM duloxetine, 1 μM desipramine or 10 μM GBR12909 (each in Dilution Buffer) for the hSERT, hNET or hDAT assays, respectively.
(§5) Following a 60 minute incubation at 22° C. (or a period sufficient to reach equilibrium), the membranes were harvested by rapid filtration over a 96-well UniFilter GF/B plate, pretreated with 0.3% polyethyleneimine, and washed 6 times with […] (50 mM Tris-HCl, 0.9% NaCl, pH 7.5 at 4° C.). Plates were dried overnight at room temperature, approximately […] of MicroScint™-20 (Perkin Elmer) added and bound radioactivity quantitated via liquid scintillation spectroscopy. Inhibition curves and saturation isotherms were analyzed using GraphPad Prism Software package (GraphPad Software, Inc., San Diego, Calif.). IC50 values were generated from concentration response curves using the Sigmoidal Dose Response (variable slope) algorithm in Prism GraphPad. Kd and Bmax values for the radioligand were generated from saturation isotherms using the Saturation Binding Global Fit algorithm in Prism GraphPad. pKi (negative decadic logarithm of Ki) values for test compounds were calculated from the best-fit IC50 values, and the Kd value of the radioligand, using the Cheng-Prusoff equation (Cheng & Prusoff (1973) Biochem. Pharmacol. 22(23):3099-3108): Ki=IC50/(1+[L]/Kd), where [L]=concentration radioligand.
Target sequence in this assay (P31645 whole entry): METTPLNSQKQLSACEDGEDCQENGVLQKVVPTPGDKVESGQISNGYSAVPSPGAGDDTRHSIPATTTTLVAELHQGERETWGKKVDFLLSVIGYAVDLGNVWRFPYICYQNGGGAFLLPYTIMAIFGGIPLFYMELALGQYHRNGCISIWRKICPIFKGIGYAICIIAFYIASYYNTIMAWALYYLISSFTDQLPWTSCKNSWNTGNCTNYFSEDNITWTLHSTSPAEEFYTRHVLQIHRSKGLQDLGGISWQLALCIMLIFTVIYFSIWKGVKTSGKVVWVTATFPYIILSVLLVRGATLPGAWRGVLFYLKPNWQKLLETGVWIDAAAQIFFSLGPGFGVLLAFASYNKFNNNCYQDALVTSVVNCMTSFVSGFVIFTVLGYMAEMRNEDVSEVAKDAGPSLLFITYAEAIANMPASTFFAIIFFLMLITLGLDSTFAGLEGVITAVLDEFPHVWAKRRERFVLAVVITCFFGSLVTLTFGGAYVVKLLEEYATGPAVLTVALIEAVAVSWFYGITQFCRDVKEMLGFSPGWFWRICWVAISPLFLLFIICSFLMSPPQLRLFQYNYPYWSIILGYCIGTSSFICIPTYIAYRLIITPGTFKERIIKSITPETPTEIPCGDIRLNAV

[2] = molecular target: T2, NET (Homo sapiens, UniProt P23975); experiment: hNET membrane radioligand binding assay (3H-nisoxetine); set-up: expressed in transfected cells; host or cells: HEK-293; details: hNET membranes (HEK-293), 1.0 nM 3H-nisoxetine; read-out: NET pKi (converted)
T2 sequence (P23975 whole entry): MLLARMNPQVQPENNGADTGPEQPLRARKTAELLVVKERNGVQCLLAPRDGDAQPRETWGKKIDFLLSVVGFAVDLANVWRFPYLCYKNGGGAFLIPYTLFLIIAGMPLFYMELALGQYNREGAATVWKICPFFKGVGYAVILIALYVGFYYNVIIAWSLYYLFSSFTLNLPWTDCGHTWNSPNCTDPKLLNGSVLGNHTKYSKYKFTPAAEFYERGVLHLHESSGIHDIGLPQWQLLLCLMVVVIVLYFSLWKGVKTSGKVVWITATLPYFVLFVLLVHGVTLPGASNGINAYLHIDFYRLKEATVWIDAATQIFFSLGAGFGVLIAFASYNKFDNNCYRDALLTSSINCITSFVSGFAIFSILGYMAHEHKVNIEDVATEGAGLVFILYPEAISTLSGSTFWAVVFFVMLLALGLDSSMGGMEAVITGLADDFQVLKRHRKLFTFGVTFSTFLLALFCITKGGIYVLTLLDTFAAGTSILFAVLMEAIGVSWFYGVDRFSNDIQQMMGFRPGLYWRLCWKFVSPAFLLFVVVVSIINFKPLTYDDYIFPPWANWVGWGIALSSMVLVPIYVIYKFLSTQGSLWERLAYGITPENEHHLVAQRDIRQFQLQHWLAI
Experimental: as §1, §2, §3, §4, §5

[3] = molecular target: T2, NET; experiment: fluorescence-based norepinephrine uptake assay (Tsuruda et al. 2010); format: cell-based; details: norepinephrine reuptake inhibition, fluorescence-based assay (data indicated by an asterisk); read-out: NET pIC50 (converted)
[4] = molecular target: T1, SERT; experiment: fluorescence-based serotonin uptake assay (Tsuruda et al. 2010); format: cell-based; details: serotonin reuptake inhibition, fluorescence-based assay (data indicated by an asterisk); for IC50: read-out: SERT pIC50 (converted)
Target sequence in this assay (P31645 whole entry, species assumed): as the sequence (P31645 whole entry) above

SMILES	Ki [1]	Ki [2]	IC50 [3]	IC50 [4]	SERT pKi [1]	SERT pIC50 [4]
Clc1cccc(Cl)c1O[C@H](C1CCOCC1)[C@H]1CCNC1 [Example 13-25, (S)-3-[(R)-(2,6-Dichlorophenoxy)(tetrahydropyran-4-yl)methyl]pyrrolidine]	≤ 100 nM	≤ 100 nM				
FC(F)(F)c1c(Cl)cccc1OC(C1CCOCC1)C1CCNC1 [Example 13-18, (S)-3-[(S)-(3-Chloro-2-trifluoromethylphenoxy)(tetrahydropyran-4-yl)-methy]-pyrrolidine]	≤ 10 nM	≤ 100 nM				
FC(F)(F)c1c(Cl)cccc1O[C@@H](C1CCOCC1)[C@@H]1CCNC1 [Example 13-21, (R)-3-[(S)-(3-Chloro-2-trifluoromethylphenoxy)(tetrahydropyran-4-yl)-methyl]-pyrrolidine]	≤ 10 nM	≤ 100 nM				
CSCCC(Oc1cccc(Cl)c1Cl)C1CCNC1 (mixture of isomers) [Example 20, 3-[1-(2,3-Dichlorophenoxy)-3-methylsulfanylpropyl]pyrrolidine]	≤ 10 nM	≤ 10 nM				
COC[C@H](Oc1cccc(Cl)c1Cl)[C@@H]1CCNC1 [Example 4-8, (R)-3-[(R)-1-(2,3-Dichlorophenoxy)-2-methoxyethyl]pyrrolidine]	≤ 10 nM	≤ 100 nM				
FC(F)(F)c1ccc(O[C@@H](C2CCOCC2)[C@H]2CCNC2)cc1 [Example 13-11, (S)-3-[(S)-(Tetrahydropyran-4-yl)(4-trifluoromethylphenoxy)methyl]pyrrolidine]	≤ 10 nM	≤ 100 nM	≤ 100 nM	≤ 10 nM		
Cc1c(Cl)cccc1O[C@@H](COC(C)C)[C@@H]1CCNC1 [Example 9-25, (R)-3-[(R)-1-(3-Chloro-2-methylphenoxy)-2-isopropoxyethyl]pyrrolidine]					≧8.0	≧8.0*
CC(C)OC[C@H](Oc1cccc(F)c1Cl)[C@@H]1CCNC1 [Example 9-10, (R)-3-[(R)-1-(2-Chloro-3-fluorophenoxy)-2-isopropoxyethyl]pyrrolidine]	≤ 100 nM	≤ 100 nM	≤ 100 nM	≤ 100 nM		
Clc1cccc(Cl)c1O[C@@H](C1CCOCC1)[C@@H]1CCNC1 [Example 13-27, (R)-3-[(S)-(2,6-Dichlorophenoxy)(tetrahydropyran-4-yl)methyl]pyrrolidine]	≤ 100 nM	≤ 10 nM				
COCC(Oc1ccccc1Cl)C1CCNC1 (single isomer, unassigned) [Example 4-1, 3-[1-(2-Chlorophenoxy)-2-methoxyethyl]pyrrolidine]	≤ 100 nM	≤ 100 nM				
CC(C)OC[C@H](Oc1cccc(Cl)c1Cl)[C@@H]1CCNC1 [Example 9-6, (R)-3-[(R)-1-(2,3-Dichlorophenoxy)-2-isopropoxyethyl]pyrrolidine]	≤ 10 nM	≤ 100 nM	≤ 100 nM	≤ 100 nM		
Clc1cc(Cl)cc(O[C@@H](C2CCOCC2)[C@H]2CCNC2)c1 [Example 13-28, (S)-3-[(S)-(3,5-Dichlorophenoxy)(tetrahydropyran-4-yl)methyl]pyrrolidine]	≤ 10 nM	≤ 100 nM				
COCC(Oc1cc(Cl)cc(Cl)c1)C1CCNC1 (stereo not drawn) [Example 4-29, 3-[1-(3,5-Dichlorophenoxy)-2-methoxyethyl]pyrrolidine]	≤ 10 nM	≤ 100 nM				
COC[C@H](Oc1c(Cl)cccc1Cl)[C@H]1CCNC1 [Example 4-28, (S)-3-[(R)-1-(2,6-Dichlorophenoxy)-2-methoxyethyl]pyrrolidine]	≤ 100 nM	≤ 10 nM				
COC[C@H](Oc1cccc(C(F)(F)F)c1)[C@H]1CCNC1 [Example 4-3, (S)-3-[(R)-2-Methoxy-1-(3-trifluoromethylphenoxy)ethyl]pyrrolidine]	≤ 100 nM	≤ 100 nM				
Fc1cccc(O[C@@H](C2CCOCC2)[C@@H]2CCNC2)c1 [Example 13-5, (R)-3-[(S)-(3-Fluorophenoxy)(tetrahydropyran-4-yl)methyl]pyrrolidine]	≤ 100 nM	≤ 100 nM				
FC(F)(F)c1c(Cl)cccc1O[C@H](C1CCOCC1)[C@H]1CCNC1 [Example 13-19, (S)-3-[(R)-(3-Chloro-2-trifluoromethylphenoxy)(tetrahydropyran-4-yl)-methyl]-pyrrolidine]	≤ 10 nM	≤ 100 nM				
COC[C@H](Oc1cccc(F)c1Cl)[C@H]1CCNC1 [Example 4-12, (S)-3-[(R)-1-(2-Chloro-3-fluorophenoxy)-2-methoxyethyl]pyrrolidine]	≤ 100 nM	≤ 10 nM				
FC(F)(F)c1cccc(O[C@@H](C2CCOCC2)[C@H]2CCNC2)c1 [Example 13-8, (S)-3-[(S)-(Tetrahydropyran-4-yl)(3-trifluoromethylphenoxy)methyl]pyrrolidine]	≤ 100 nM	≤ 100 nM				
FC(F)(F)c1cc(Cl)ccc1O[C@H](C1CCOCC1)[C@@H]1CCNC1 [Example 13-23, (R)-3-[(R)-(4-Chloro-2-trifluoromethylphenoxy)(tetrahydropyran-4-yl)methyl]pyrrolidine]	≤ 10 nM	≤ 100 nM				
FC(F)(F)c1cccc(O[C@H](C2CCOCC2)[C@@H]2CCNC2)c1 [Example 13-7, (R)-3-[(R)-(Tetrahydropyran-4-yl)(3-trifluoromethylphenoxy)methyl]pyrrolidine]	≤ 100 nM	≤ 100 nM				
Clc1cccc(Cl)c1O[C@H](C1CCOCC1)[C@@H]1CCNC1 [Example 13-26, (R)-3-[(R)-(2,6-Dichlorophenoxy)(tetrahydropyran-4-yl)methyl]pyrrolidine]	≤ 100 nM	≤ 10 nM				
COC[C@H](Oc1cccc(Cl)c1C)[C@@H]1CCNC1 [Example 4-17, (R)-3-[(R)-1-(3-Chloro-2-methylphenoxy)-2-methoxyethyl]pyrrolidine]	≤ 10 nM	≤ 100 nM				
COCC(Oc1ccc(Cl)cc1)C1CCNC1 (stereo not drawn) [Example 4-4, 3-[1-(4-Chlorophenoxy)-2-methoxyethyl]pyrrolidine]	≤ 10 nM	≤ 100 nM				
Fc1ccc(O[C@H](C2CCOCC2)[C@@H]2CCNC2)cc1 [Example 13-10, (R)-3-[(R)-(4-Fluorophenoxy)(tetrahydropyran-4-yl)methyl]pyrrolidine]	≤ 100 nM	≤ 100 nM				
COCCC(Oc1ccc(Cl)cc1C)C1CCNC1 (single isomer, unassigned) [5 (1st peak)]	≤ 10 nM	≤ 100 nM				
COC[C@@H](Oc1c(Cl)cccc1Cl)[C@H]1CCNC1 [Example 4-27, (S)-3-[(S)-1-(2,6-Dichlorophenoxy)-2-methoxyethyl]pyrrolidine]	≤ 100 nM	≤ 100 nM				
Fc1cccc(O[C@H](C2CCOCC2)[C@@H]2CCNC2)c1 [Example 13-6, (R)-3-[(R)-(3-Fluorophenoxy)(tetrahydropyran-4-yl)methyl]pyrrolidine]	≤ 100 nM	≤ 10 nM				
COCC(Oc1ccccc1Cl)C1CCNC1 (single isomer, unassigned) [Example 4-2, 3-[1-(2-Chlorophenoxy)-2-methoxyethyl]pyrrolidine]		≤ 10 nM			≧7.0	
Clc1ccccc1O[C@H](C1CCOCC1)[C@@H]1CCNC1 [Example 13-2, (R)-3-[(R)-(2-Chlorophenoxy)(tetrahydropyran-4-yl)methyl]pyrrolidine]	≤ 100 nM	≤ 10 nM				
